Values joined by “and” are separate entries in the source; they are usually repeats but may differ in a detail not shown here. Equal values may be shown once. Read-outs that look alike come from different tables or passages of the source.
Assays:
Caco-2 cells [1] = experiment: MTT cytotoxicity assay, colorectal cancer cells; format: cell-based, human; settings: for IC50: Homo sapiens; for Caco-2 SI: ratio of IC50 against normal cells (Wi-38) to IC50 against Caco-2
Protocol: (§1) Wi-38, Caco-2 and HepG-2 cells were cultured in DMEM medium-contained 10% FBS, seeded as 5 × 10^3 cells per well in 96-well cell culture plate and incubated at 37 °C in 5% CO2 incubator. After 24 h, serial concentrations of the test compounds were incubated with cells for 72 h. Cell viability was assayed via MTT protocol[27] (Supplementary data). IC50 values of the synthesized compounds were measured via the Graphpad Instat software. Morphological changes were examined using phase contrast inverted microscope with a digital camera (Olympus, Japan). […]
(§2) Normal human lung fibroblast Wi-38 cell line was used to detect cytotoxicity of the studied compounds.
(§3) Wi-38 cell line was cultured in DMEM medium-contained 10% fetal bovine serum (FBS), seeded as 5x10^3 cells per well in 96-well cell culture plate and incubated at 37 °C in 5% CO2 incubator. After 24 h for cell attachment, serial concentrations of the synthetic compounds and standard chemotherapy (5-fluorouracil) were incubated with Wi-38 cells for 72 h. Cell viability was assayed by MTT method Twenty microliters of 5 mg/ml MTT (Sigma, USA) was added to each well and the plate was incubated at 37 °C for 3 h. Then MTT solution was removed, 100 µl DMSO was added, and the absorbance of each well was measured with a microplate reader (BMG LabTech, Germany) at 570 nm. The dose (EC50 and EC100) values (at 50% and100% cell viability, respectively) of the tested compounds was estimated by the Graphpad Instat software.
(§4) The anticancer effect of the above-mentioned compounds was assayed using human colon cancer cell line (Caco-2) and liver cancer cell line (HepG-2) that were cultured in DMEM (Lonza, USA) supplemented with 10%
(§5) FBS. All cancer cells (5x10^3 cells/well) were seeded in sterile 96-well plates. After 24h, serial concentrations of the tested compounds and 5-fluorouracil (Fu) were incubated with two cancer cell lines for 72 h at 37 °C in 5% CO2 incubator. MTT method was done as described above. The half maximal inhibitory concentration (IC50) values were calculated using the Graphpad Instat software. Furthermore, cellular morphological changes before […]
(§6) contrast inverted microscope with a digital camera (Olympus, Japan).

HepG-2 cells = experiment: MTT cytotoxicity assay, liver cancer cells; format: cell-based, human; settings: for IC50: Homo sapiens, HepG2; for HepG-2 SI: ratio of IC50 against normal cells (Wi-38) to IC50 against HepG-2
Protocol: as §1, §2, §3, §4, §5, §6

Wi-38 cells = experiment: MTT cytotoxicity assay, normal human fibroblasts; format: cell-based; settings: 72 h, mean ± SEM; for MNTC: dose at 100% cell viability, read-out: Wi-38 EC100
Protocol: as §1, §2
as §3, with “software. […]” for “software.”

caspase-3/7 [2] = experiment: Caspase-3/7 activation assay (ApoONE kit) in HepG-2 cells; format: cell-based, human; settings: HepG-2 cells treated with IC50 doses; relative to untreated cells; mean ± SEM
Protocol: (§7) ApoONE® Caspase-3/7 kit was used following the manufacturer’s instructions (Supplementary data).
(§8) 5.2. Caspase-3/7 activation assay
(§9) The caspase 3/7 activation was assessed, as a key indicator in caspase-dependent apoptosis, using ApoONE® Caspase-3/7 kit following the manufacturer’s instructions. This kit used a nonfluorescence substrate […]
(§10) the generation of the fluorescence signals of Rhodamine 110. Thesesignal were measured at 490 nm excitation and 520 nm emission using the fluorescence microplate reader (BMG LabTech, Germany). […]

Caco-2 cells [3] = experiment: Flow cytometric analysis of apoptosis (annexin V/PI); format: cell-based, human; settings: IC50 doses, 72 h, annexin-stained, mean ± SEM
Protocol: Reverse: 5′-[…]-3′
5.4. Flow cytometric analysis of apoptosis […]
human colon cancer cell line (Caco-2) for 72 h, at their minimum IC50 doses. After trypsinization, the untreated and treated cancer cells were stained with fluorescein isothiocyanate (FITC)-annexin V/ propidium iodide (PI) for 15 min. After washing with PBS, the annexin-stained apoptotic population was quantified using flow cytometry at FITC signal detector (FL1) against the phycoerythrin emission signal detector (FL2).

Bcl2 = experiment: RT-qPCR of Bcl2 expression in Caco-2 cells; format: cell-based, human; settings: 0.06 µM for 72 h, mean ± SEM
Protocol: (§11) RNAs of untreated and treated cancer cells were extracted using Gene JET RNA purification kit (Thermo Scientific, USA). Then cDNAs were synthesized using cDNA Synthesis Kit (Thermo Scientific, USA). Real time PCR was performed using SYBR green master mix and specific primers (Forward/Reverse) as detailed in the supplementary data. […]
5.3. Real-time Quantitative PCR Analysis of Bcl2 […]
as §11, with “µM, for 72 h in 5% CO2 incubator. RNAs” for “RNAs”, “primers” for “primers (Forward/Reverse) as detailed in the supplementary data.”
The thermal cycling parameters were pre-denaturation, followed by 40 amplification cycles of 1 min at 95°C and 30 s at 60 °C and at 72°C for 30 sec. GAPDH mRNA was quantified to adjust the amount of mRNA in each sample. The 2−ΔΔCT equation was used to estimate change in gene expressions before and after treatment of cancer cells.
Table 1 primer sequences of the used genes

caspase-3/7 [4] = experiment: Caspase-3/7 activation assay (ApoONE kit) in Caco-2 cells; format: cell-based, human; settings: Caco-2 cells treated with IC50 doses; relative to untreated cells; mean ± SEM
Protocol: as §7, §8, §9, §10

[5] = Caco-2, MTT, 72 h, mean ± SEM, read-out: Caco-2 IC50 (converted)
[6] = MTT, 72 h, mean ± SEM, read-out: HepG-2 IC50
[7] = microscopic examination after 72 h, compared to untreated and 5-FU-treated cells

Compound	melting point [°C]	IC50 (Caco-2 cells [1]; [5]) [nM]	Caco-2 SI (Caco-2 cells [1])	IC50 (HepG-2 cells; [6]) [nM]	HepG-2 SI (HepG-2 cells)	MNTC (Wi-38 cells) [nM]	IC50 (Wi-38 cells) [nM]	Relative fold increment in caspase 3/7 activity, HepG-2 (caspase-3/7 [2]) [fold]	SI against the screened cell lines (Caco-2 cells [1]; Caco-2 and HepG-2 cells versus Wi-38)	IC50 (Caco-2 cells [1]; Caco-2, -log (IC50), molar, read-out: Caco-2 IC50 (converted)) [nM]	IC50 (Caco-2 cells [1]; Caco-2 and HepG-2 cells, MTT, read-out: IC50 against the screened cell lines) [nM]	Caco-2 LE (Caco-2 cells [1]; LE = 1.37 (pIC50)/NHA)	Caco-2 LLE (Caco-2 cells [1]; LLE = pIC50–cLog P)	Morphological alterations of treated Caco-2 cells (Caco-2 cells [1]; [7])	IC50 (HepG-2 cells; read-out: HepG-2 pIC50 (converted)) [nM]	Morphological alterations of treated HepG-2 cells (HepG-2 cells; [7])	% Apoptosis (total apoptotic cell population) (Caco-2 cells [3])	Bcl2 gene relative fold change (Bcl2) [fold]	Relative fold increment in caspase 3/7 activity, Caco-2 (caspase-3/7 [4]) [fold]
CCOC(=O)c1ccc(NC(=O)C2(OC(=O)c3ccccc3I)CCCCC2)cc1 [7f, 1-((4-(Ethoxycarbonyl)phenyl)carbamoyl)cyclohexyl 2-iodobenzoate]	148 to 150	129 ± 28	132.209	147 ± 46	116.020	967 ± 26	17100 ± 1690												
CCOC(=O)c1ccc(NC(=O)C2(OC(=O)C=Cc3ccc(C(F)(F)F)cc3)CCCCC2)cc1 [7h, Ethyl-4-(1-((3-(4-(trifluoromethyl)phenyl)acryloyl)oxy)cyclohexanecarboxamido)benzoate]	145 to 147	138 ± 14	135.340	259 ± 73	72.111	1650 ± 39	18700 ± 2040												
CCOC(=O)c1ccc(N2C(=O)OC3(CCCCC3)C2=O)cc1 [compound 11, Ethyl-4-(2,4-dioxo-1-oxa-3-azaspiro[4.5]decan-3-yl)benzoate]	143 to 145	239 ± 71	41.510	209 ± 17	47.468	4940 ± 1540	9920 ± 1610												
CCOC(=O)c1ccc(NC(=O)C2(O)CCCCC2)cc1 [compound 9, Ethyl 4-(1-hydroxycyclohexanecarboxamido)benzoate]	160 to 163	154 ± 7	109.272	150 ± 4	112.186	3220 ± 217	16800 ± 3010												
CCOC(=O)c1ccc(NC(=O)C2(OC(=O)Cc3ccccc3)CCCCC2)cc1 [7g, Ethyl-4-(1-(2-phenylacetoxy)cyclohexanecarboxamido)benzoate]		64 ± 6	266.828	65 ± 4	262.723	1300 ± 105	17100 ± 2150	4.118 ± 0.083	262–266	64.1	60	0.328	3.453	severe shrinkage and morphological alterations	65	severe shrinkage and morphological alterations	58.7% and 58.730 ± 2.930%	0.087 ± 0.009	
CCOC(=O)c1ccc(NC(=O)C2(OC(=O)c3ccc4ccccc4n3)CCCCC2)cc1 [7b, 1-((4-(Ethoxycarbonyl)phenyl)carbamoyl)cyclohexyl quinoline-2-carboxylate]	103 to 105	172 ± 22	105.697	228 ± 27	79.736	1790 ± 111	18200 ± 2220												
CCOC(=O)c1ccc(NC(=O)C2(OC(=O)c3ccc(Cl)cc3)CCCCC2)cc1 [7d, 1-((4-(Ethoxycarbonyl)phenyl)carbamoyl)cyclohexyl 4-chlorobenzoate]	193 to 195	201 ± 19	123.174	407 ± 16	60.830	1700 ± 165	24800 ± 10200												
CCOC(=O)c1ccc(NC(=O)C2(OC(=O)CNC(=O)c3ccc(NC(=O)OC(C)(C)C)cc3)CCCCC2)cc1 [7i, Ethyl-4-(1-(2-(4-((tert-butoxycarbonyl)amino)benzamido)acetoxy)cyclohexanecarboxamido) benzoate]	115 to 117	132 ± 50	172.765	127 ± 44	179.566	1630 ± 259	22800 ± 3100												
CCOC(=O)c1ccc(NC(=O)C2(OC(=O)c3ccccc3)CCCCC2)cc1 [7c, Ethyl-4-(1-(benzoyloxy)cyclohexanecarboxamido)benzoate]	140 to 142	276 ± 34	27.909	184 ± 9	41.864	2100 ± 92	7700 ± 321												
CCOC(=O)c1ccc(NC(=O)C2(OC(=O)c3ccccc3Cl)CCCCC2)cc1 [7e, 1-((4-(Ethoxycarbonyl)phenyl)carbamoyl)cyclohexyl 2-chlorobenzoate]	130 to 132	117 ± 10	168.820	130 ± 9	151.938	1780 ± 169	19800 ± 1020												
O=c1[nH]cc(F)c(=O)[nH]1 [5-FU, 5-fluorouracil, reference compound]		865 ± 39	2.301	1610 ± 28	1.233	840 ± 55	1990 ± 135	1.001 ± 0.001										0.948 ± 0.027	1.016 ± 0.009
CCOC(=O)c1ccc(NC(=O)C2(OC(=O)CS)CCCCC2)cc1 [7k, Ethyl-4-(1-(2-mercaptoacetoxy)cyclohexane-1-carboxamido)benzoate]	108 to 110	140 ± 3	69.057	141	68.567	1465 ± 10	9670 ± 102												

Source: publication PMC9794698, “Structure optimization of new tumor-selective Passerini α-acyloxy carboxamides as Caspase-3/7 activators” (Scientific Reports, 2022)
